The values that follow come from US11976070B1, “Substituted pyrimido[6’, 1’:2,3]imidazo[4,5-c][1,6]naphthyridines as CK2 inhibitors” (KING FAISAL UNIVERSITY, priority 2023, dated 2024).

Each structure is given as a SMILES string. Like-named read-outs stand apart in the source and are kept apart here.

In one test the test system is PC3 (prostate). Description: In vitro cytotoxic activity (MTT) assay, PC3. Format: cell-based. The conditions noted are these: Homo sapiens, Prostate cell; PC3 (prostate) cells, exposed for 96 hours; read-out: IC50, 50% inhibition of cell proliferation. The procedure: (§1) Compounds 1-12 were screened for their in vitro cytotoxic activity utilizing a 3-(4,5-dimethyl-thiazol-2-yl)-2,5-diphenyltetrazolium bromide (MTT) assay against selected cancer human cell lines consisting of PC3 (prostate), HCT116 (colon). A375 (melanoma), H1299 (lung), MIAPaCa-2 (pancreas), HL60 (leukemia), MCF7 (breast), MDA-MB-231 (breast) (T. Mosmann, J. Immunol. Meth., 1983, 65, 55-63). The cells were cultured at 37° C. in RMPI1640 medium supplemented with 10% fetal bovine serum, 50 IU/mL penicillin, and 50 μg/mL streptomycin in a 5% CO2 incubator. All cells were sub-cultured 3 times/week by trypsinisation. Viable cells were seeded and allowed to adhere for 12 h before a test drug was added in 96-well plates at an initial density of 1.0×10^5 cells/mL. Tumour cell lines were separately exposed to various concentrations of the tested compounds followed by incubation at a temperature of 37° C. during 96 h inside a medium of fresh RMPI 1640. Cells were subsequently incubated at 37° C. using MTT at 0.5 mg/mL during 4 h. After removal of supernatant, formazan crystals were dissolved in isopropanol and the optical density was measured at 570 nm. CX-4945 was used as a positive control.

In a further test the test system is HCT116 (colon). Description: In vitro cytotoxic activity (MTT) assay, HCT116. It is filed as cell-based. Particulars: Homo sapiens, HCT-116; HCT116 (colon) cells, exposed for 96 hours; read-out: IC50, 50% inhibition of cell proliferation. The method, then: as §1
For a further test, the system named is A375 (melanoma). Description: In vitro cytotoxic activity (MTT) assay, A375. Format: cell-based. Particulars: Homo sapiens, A-375; A375 (melanoma) cells, exposed for 96 hours; read-out: IC50, 50% inhibition of cell proliferation. The procedure: as §1
For a further test, the system named is H1299 (lung). Kind of test: In vitro cytotoxic activity (MTT) assay, H1299. The conditions noted are these: Homo sapiens, NCI-H1299; H1299 (lung) cells, exposed for 96 hours; read-out: IC50, 50% inhibition of cell proliferation. It is filed as cell-based. The method, then: as §1
The subject of another test is MIAPaCa-2 (pancreas). Kind of test: In vitro cytotoxic activity (MTT) assay, MIAPaCa-2. Format: cell-based. Particulars: Homo sapiens, MIA PaCa-2; MIAPaCa-2 (pancreas) cells, exposed for 96 hours; read-out: IC50, 50% inhibition of cell proliferation. The procedure: as §1
For a further test, the system named is HL60 (leukemia). Kind of test: In vitro cytotoxic activity (MTT) assay, HL60. Format: cell-based. Particulars: Homo sapiens, HL-60; HL60 (leukemia) cells, exposed for 96 hours; read-out: IC50, 50% inhibition of cell proliferation. The method, then: as §1
Another test has as its system MCF7 (breast). Kind of test: In vitro cytotoxic activity (MTT) assay, MCF7. Format: cell-based. The conditions noted are these: Homo sapiens; MCF7 (breast) cells, exposed for 96 hours; read-out: IC50, 50% inhibition of cell proliferation. The procedure:
as §1

Another test deals with MDA-MB-231 (breast). Description: In vitro cytotoxic activity (MTT) assay, MDA-MB-231. Format: cell-based. Particulars: Homo sapiens; MDA-MB-231 (breast) cells, exposed for 96 hours; read-out: IC50, 50% inhibition of cell proliferation. The method, then:
as §1

Test [1] concerns the target T1, recombinant human CK2 (RRββ-holoenzyme) (Homo sapiens, UniProt P68400).
T1 construct: purchased Millipore
Description: CK2 Kinase Assay (radiometric, [γ-33P]ATP). Format: biochemical. Particulars: final ATP 15 μM, 10 min at 30° C.; read-out: protein kinase CK2 inhibition IC50. The method, then: CK2 Kinase Assay was conducted using the protocol as described in Pierre F. et al; J. Med. Chem. 2011, 54, 635-654. The tested compounds in aqueous solution were added at a volume of 10 μL to a reaction mixture comprising 10 μL of assay dilution buffer (ADB; 20 mM MOPS, pH 7.2, 25 mM β-glycerol phosphate, 5 mM EGTA, 1 mM sodium orthovanadate, and 1 mM dithiothreitol), 10 μL of substrate peptide (RRRDDDSDDD, dissolved in ADB at a concentration of 1 mM), 10 μL of recombinant human CK2 (RRββ-holoenzyme, 25 ng dissolved in ADB; Millipore). Reactions were initiated by the addition of 10 μL of ATP solution (90% 75 mMMgCl2, 75 μM ATP (final ATP concentration:15 μM) dissolved in ADB; 10% [γ-33P] ATP (stock 1 mCi/100 μL: 3000 Ci/mmol (Perkin-Elmer) and maintained for 10 min at 30° C. The reactions were quenched with 100 μL of 0.75% phosphoric acid and then transferred to and filtered through a phosphor cellulose filter plate (Millipore). After washing each well five times with 0.75% phosphoric acid, the plate was dried under vacuum for 5 min and, following the addition of 15 μL of scintillation fluid to each well, the residual radioactivity was measured using a Wallac […]. The IC50 values were derived from eight concentrations of test inhibitors.

The test system of test [2] is various human cancer cell lines. Description: In vitro cytotoxic activity assay, panel statement. It is filed as cell-based. The procedure: as §1

T1 sequence (P68400 whole entry): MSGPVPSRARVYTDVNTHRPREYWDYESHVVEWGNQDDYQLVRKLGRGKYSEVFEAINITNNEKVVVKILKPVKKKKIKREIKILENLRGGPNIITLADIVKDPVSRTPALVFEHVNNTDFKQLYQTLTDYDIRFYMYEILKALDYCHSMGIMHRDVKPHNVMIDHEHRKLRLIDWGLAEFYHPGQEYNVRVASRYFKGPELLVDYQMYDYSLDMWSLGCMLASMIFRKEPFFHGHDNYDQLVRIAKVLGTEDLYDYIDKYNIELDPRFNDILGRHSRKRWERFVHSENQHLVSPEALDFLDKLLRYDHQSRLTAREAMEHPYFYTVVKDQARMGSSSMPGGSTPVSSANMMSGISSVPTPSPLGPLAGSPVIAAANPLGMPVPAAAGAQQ
T1 sequence (P67870 whole entry partner): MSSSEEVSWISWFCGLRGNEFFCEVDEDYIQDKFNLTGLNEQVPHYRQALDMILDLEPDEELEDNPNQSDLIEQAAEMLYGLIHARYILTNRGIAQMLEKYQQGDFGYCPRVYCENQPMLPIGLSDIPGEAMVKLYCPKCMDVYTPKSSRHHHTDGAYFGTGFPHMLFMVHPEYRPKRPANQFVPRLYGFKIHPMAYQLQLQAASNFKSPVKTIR

As to `Clc1cccc(Nc2nc3ccncc3c3nc4ccncn4c23)c1` [Compound 1, N-(3-chlorophenyl)pyrimido[6′,1′:2,3]imidazo[4,5-c][1,6]naphthyridin-6-amine], the IC50 was found to be 1400 nM with PC3 (prostate); 1100 nM in the test on HCT116 (colon); 2900 nM with A375 (melanoma); 2500 nM in the test with H1299 (lung); 900 nM with MIAPaCa-2 (pancreas); 3200 nM in the test on HL60 (leukemia). Besides, the IC50 in the test with MCF7 (breast) amounted to 5100 nM; in the test on MDA-MB-231 (breast), 4500 nM; in test [1], 22 nM. The “in vitro anti-proliferative activity, in words” value in test [2] is listed as “promising anti-proliferative activity”; in test [2] (listed as 13), “promising in vitro anti-proliferative activity”.
